pEC50: −log10 of the molar value. Where “and” joins values, the source holds several entries; their conditions need not be identical. Equal values may be shown once.
Columns and labels:
Assay type in all cases: cell-based
HRH3 = target: T1, HRH3 (Homo sapiens, UniProt Q9Y5N1); test: PRESTO-Tango GPCR screen and dose-response; details: replicate wells
T1 construct: expressed in transfected cells; host or cells: HTLA cells (HEK293 line stably expressing β-arrestin-TEV and tTA-Luciferase)
In short: (§1)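 β-Arrestin recruitment Tango format: HTLA cells, PEI transfection of receptor-Tango construct, 16-24 h; test compound 100 μM final, 20 h; Bright-Glo luminescence; RLU/PBS control RLU = fold activation. Dose-response curves run from 10^−4 M to 10^−15 M.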

[1] = target: T2, histamine receptor H4 (HRH4) (Homo sapiens, UniProt Q9H3N8); test: PRESTO-Tango GPCR screen and dose-response; details: for HRH4 dose-response raw reporter signal (Fig. 5b source data): replicate wells
T2 construct: expressed in transfected cells; host or cells: HTLA cells (HEK293 line stably expressing β-arrestin-TEV and tTA-Luciferase)
In short: as §1

CCKAR = target: T3, CCKAR (Homo sapiens, UniProt P32238); test: PRESTO-Tango GPCR screen; details: 100 µM
T3 construct: purchased PRESTO-Tango GPCR kit (Roth lab / Addgene)
Description: (§2) The PRESTO-Tango analyses were performed as previously published. Briefly, HTLA cells, a HEK293 cell line that stably expresses β-arrestin-TEV and tTA-Luciferase (a kind gift from Gilad Barnea, Brown University), were plated in 96-well tissue culture plates (Eppendorf) in DMEM containing 10% FBS and 1% Penicillin/Streptomycin. One day after plating (after reaching approximately 90% confluence), 200 ng per well GPCR-Tango plasmids[37] in 20 μL DMEM were individually mixed with 400 ng polyethylenimine (Polysciences) in an equal volume of DMEM and incubated for 20 min at room temperature before adding the transfection mixture to the HTLA cells. 16-24 h after transfection, medium was replaced with 180 μL fresh DMEM containing 1% Penicillin/Streptomycin and 10 mM HEPES and 20 μL of 3 or 3-Homo to reach a final concentration of 100 μM. Supernatants were aspirated 20 h after stimulation and 50 μl per well of Bright-Glo solution (Promega) diluted 20-fold with PBS containing 20 mM HEPES was added into each well. After 15 min incubation at room temperature, luminescence was quantified using a Spectramax i3x microplate reader (Molecular Devices). Activation fold for each sample was calculated by dividing relative luminescence units (RLU) for each condition by RLUs from PBS control. Dose response curves of each chemical were performed in a similar way with varying the ligand concentration from 10^−4 M to 10^−15 M.

HTR1B = target: T4, HTR1B (Homo sapiens, UniProt P28222); test: PRESTO-Tango GPCR screen; details: 100 µM
T4 construct: purchased PRESTO-Tango GPCR kit (Roth lab / Addgene)
Description: as §2

MAS1 = target: T5, MAS1 (Homo sapiens, UniProt P04201); test: PRESTO-Tango GPCR screen; details: 100 µM
T5 construct: purchased PRESTO-Tango GPCR kit (Roth lab / Addgene)
Description: as §2

PTGER4 = target: T6, PTGER4 (Homo sapiens, UniProt P35408); test: PRESTO-Tango GPCR screen; details: 100 µM
T6 construct: purchased PRESTO-Tango GPCR kit (Roth lab / Addgene)
Description: as §2

GPR116 = target: T7, GPR116 (Homo sapiens, UniProt Q8IZF2); test: PRESTO-Tango GPCR screen; details: 100 µM
T7 construct: purchased PRESTO-Tango GPCR kit (Roth lab / Addgene)
Description: as §2

SCTR = target: T8, SCTR (Homo sapiens, UniProt P47872); test: PRESTO-Tango GPCR screen; details: 100 µM
T8 construct: purchased PRESTO-Tango GPCR kit (Roth lab / Addgene)
Description: as §2

ADORA2B = target: T9, ADORA2B (Homo sapiens, UniProt P29275); test: PRESTO-Tango GPCR screen; details: 100 µM
T9 construct: purchased PRESTO-Tango GPCR kit (Roth lab / Addgene)
Description: as §2

GPR68 = target: T10, GPR68 (Homo sapiens, UniProt Q15743); test: PRESTO-Tango GPCR screen; details: 100 µM
T10 construct: purchased PRESTO-Tango GPCR kit (Roth lab / Addgene)
Description: as §2

APJ = target: T11, APJ (Homo sapiens, UniProt P35414); test: PRESTO-Tango GPCR screen; details: 100 µM
T11 construct: purchased PRESTO-Tango GPCR kit (Roth lab / Addgene)
Description: as §2

CRHR1 = target: T12, CRHR1 (Homo sapiens, UniProt P34998); test: PRESTO-Tango GPCR screen; details: 100 µM
T12 construct: purchased PRESTO-Tango GPCR kit (Roth lab / Addgene)
Description: as §2

RXFP1 = target: T13, RXFP1 (Homo sapiens, UniProt Q9HBX9); test: PRESTO-Tango GPCR screen; details: 100 µM
T13 construct: purchased PRESTO-Tango GPCR kit (Roth lab / Addgene)
Description: as §2

S1PR3 = target: T14, S1PR3 (Homo sapiens, UniProt Q99500); test: PRESTO-Tango GPCR screen; details: 100 µM
T14 construct: purchased PRESTO-Tango GPCR kit (Roth lab / Addgene)
Description: as §2

AVPR1A = target: T15, AVPR1A (Homo sapiens, UniProt P37288); test: PRESTO-Tango GPCR screen; details: 100 µM
T15 construct: purchased PRESTO-Tango GPCR kit (Roth lab / Addgene)
Description: as §2

P2RY2 = target: T16, P2RY2 (Homo sapiens, UniProt P41231); test: PRESTO-Tango GPCR screen; details: 100 µM
T16 construct: purchased PRESTO-Tango GPCR kit (Roth lab / Addgene)
Description: as §2

NPY4R = target: T17, NPY4R (Homo sapiens, UniProt P50391); test: PRESTO-Tango GPCR screen; details: 100 µM
T17 construct: purchased PRESTO-Tango GPCR kit (Roth lab / Addgene)
Description: as §2

GPR133 = target: T18, GPR133 (Homo sapiens, UniProt Q6QNK2); test: PRESTO-Tango GPCR screen; details: 100 µM
T18 construct: purchased PRESTO-Tango GPCR kit (Roth lab / Addgene)
Description: as §2

TAAR8 = target: T19, TAAR8 (Homo sapiens, UniProt Q969N4); test: PRESTO-Tango GPCR screen; details: 100 µM
T19 construct: purchased PRESTO-Tango GPCR kit (Roth lab / Addgene)
Description: as §2

FPR3 = target: T20, FPR3 (Homo sapiens, UniProt P25089); test: PRESTO-Tango GPCR screen; details: 100 µM
T20 construct: purchased PRESTO-Tango GPCR kit (Roth lab / Addgene)
Description: as §2

MRGPRF = target: T21, MRGPRF (Homo sapiens, UniProt Q96AM1); test: PRESTO-Tango GPCR screen; details: 100 µM
T21 construct: purchased PRESTO-Tango GPCR kit (Roth lab / Addgene)
Description: as §2

T1 sequence (Q9Y5N1 whole entry): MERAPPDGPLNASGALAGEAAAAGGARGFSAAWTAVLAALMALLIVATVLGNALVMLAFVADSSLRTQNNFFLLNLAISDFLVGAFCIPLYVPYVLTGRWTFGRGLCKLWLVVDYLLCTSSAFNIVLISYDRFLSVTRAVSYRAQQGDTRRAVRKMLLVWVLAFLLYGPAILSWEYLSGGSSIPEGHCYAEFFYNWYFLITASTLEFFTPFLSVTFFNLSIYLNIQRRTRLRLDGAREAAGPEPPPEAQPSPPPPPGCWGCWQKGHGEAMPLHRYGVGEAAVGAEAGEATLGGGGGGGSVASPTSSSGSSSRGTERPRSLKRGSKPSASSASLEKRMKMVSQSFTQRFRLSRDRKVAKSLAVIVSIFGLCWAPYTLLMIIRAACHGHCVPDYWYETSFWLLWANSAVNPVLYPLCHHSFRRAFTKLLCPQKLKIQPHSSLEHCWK
T14 sequence (Q99500 whole entry): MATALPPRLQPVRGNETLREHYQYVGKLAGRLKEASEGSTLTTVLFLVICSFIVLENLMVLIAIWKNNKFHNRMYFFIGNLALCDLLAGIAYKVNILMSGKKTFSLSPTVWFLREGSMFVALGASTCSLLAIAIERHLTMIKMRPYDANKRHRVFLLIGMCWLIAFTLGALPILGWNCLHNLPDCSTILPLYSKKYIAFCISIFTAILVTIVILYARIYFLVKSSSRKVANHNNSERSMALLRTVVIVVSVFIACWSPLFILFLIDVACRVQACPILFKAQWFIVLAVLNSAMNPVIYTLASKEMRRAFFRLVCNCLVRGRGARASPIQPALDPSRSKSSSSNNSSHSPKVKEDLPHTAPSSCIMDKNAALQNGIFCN
T10 sequence (Q15743 whole entry): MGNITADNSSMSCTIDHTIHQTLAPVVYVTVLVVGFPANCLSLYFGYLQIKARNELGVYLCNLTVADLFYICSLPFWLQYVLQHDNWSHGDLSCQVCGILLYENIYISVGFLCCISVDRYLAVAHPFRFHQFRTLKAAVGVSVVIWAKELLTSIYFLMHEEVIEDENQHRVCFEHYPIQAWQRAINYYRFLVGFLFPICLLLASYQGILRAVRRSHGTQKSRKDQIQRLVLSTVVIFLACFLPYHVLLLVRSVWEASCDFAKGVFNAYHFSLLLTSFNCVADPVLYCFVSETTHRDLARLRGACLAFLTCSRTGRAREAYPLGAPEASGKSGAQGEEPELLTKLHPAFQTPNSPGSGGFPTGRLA
T17 sequence (P50391 whole entry): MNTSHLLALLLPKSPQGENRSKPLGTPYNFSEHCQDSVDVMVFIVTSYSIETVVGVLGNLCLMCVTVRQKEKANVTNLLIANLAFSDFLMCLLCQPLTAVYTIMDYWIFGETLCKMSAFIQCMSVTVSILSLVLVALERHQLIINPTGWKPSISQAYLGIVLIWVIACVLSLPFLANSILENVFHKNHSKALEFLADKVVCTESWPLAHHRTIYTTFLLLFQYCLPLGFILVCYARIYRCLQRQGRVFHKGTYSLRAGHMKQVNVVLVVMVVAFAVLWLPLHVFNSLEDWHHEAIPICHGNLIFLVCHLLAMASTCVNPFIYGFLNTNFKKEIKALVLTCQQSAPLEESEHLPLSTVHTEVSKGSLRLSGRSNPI
T18 sequence (Q6QNK2 26-874): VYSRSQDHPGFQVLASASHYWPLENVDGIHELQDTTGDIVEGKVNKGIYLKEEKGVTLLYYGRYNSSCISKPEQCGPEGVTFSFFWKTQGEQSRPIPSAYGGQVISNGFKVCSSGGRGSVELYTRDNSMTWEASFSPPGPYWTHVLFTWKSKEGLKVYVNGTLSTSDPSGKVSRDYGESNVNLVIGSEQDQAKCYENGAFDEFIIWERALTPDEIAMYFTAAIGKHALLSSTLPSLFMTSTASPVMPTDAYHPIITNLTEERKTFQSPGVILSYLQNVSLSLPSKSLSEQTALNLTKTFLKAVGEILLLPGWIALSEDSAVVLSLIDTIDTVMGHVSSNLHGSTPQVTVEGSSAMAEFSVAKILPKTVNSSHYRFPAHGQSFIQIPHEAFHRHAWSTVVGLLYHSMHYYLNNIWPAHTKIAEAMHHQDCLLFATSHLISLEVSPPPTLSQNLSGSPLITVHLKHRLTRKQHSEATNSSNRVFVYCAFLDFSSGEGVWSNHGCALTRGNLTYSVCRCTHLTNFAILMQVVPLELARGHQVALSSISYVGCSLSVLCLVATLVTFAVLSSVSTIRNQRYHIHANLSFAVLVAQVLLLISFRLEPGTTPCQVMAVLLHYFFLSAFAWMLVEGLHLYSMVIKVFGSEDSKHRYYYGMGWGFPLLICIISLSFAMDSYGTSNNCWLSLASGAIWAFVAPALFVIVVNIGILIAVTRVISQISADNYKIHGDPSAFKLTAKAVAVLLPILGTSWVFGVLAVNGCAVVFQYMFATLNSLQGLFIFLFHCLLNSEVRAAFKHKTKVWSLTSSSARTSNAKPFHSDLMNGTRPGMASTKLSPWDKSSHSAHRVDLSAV
T16 sequence (P41231 whole entry): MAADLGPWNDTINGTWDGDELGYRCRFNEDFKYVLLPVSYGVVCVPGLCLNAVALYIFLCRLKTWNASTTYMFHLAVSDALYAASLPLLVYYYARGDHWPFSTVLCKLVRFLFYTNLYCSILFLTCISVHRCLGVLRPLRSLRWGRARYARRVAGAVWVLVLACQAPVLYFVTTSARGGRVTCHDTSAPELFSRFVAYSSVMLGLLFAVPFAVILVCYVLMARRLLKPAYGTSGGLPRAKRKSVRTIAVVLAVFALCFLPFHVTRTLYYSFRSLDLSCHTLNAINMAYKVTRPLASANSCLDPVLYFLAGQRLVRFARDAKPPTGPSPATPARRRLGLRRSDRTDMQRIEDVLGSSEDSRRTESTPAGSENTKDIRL
T15 sequence (P37288 whole entry): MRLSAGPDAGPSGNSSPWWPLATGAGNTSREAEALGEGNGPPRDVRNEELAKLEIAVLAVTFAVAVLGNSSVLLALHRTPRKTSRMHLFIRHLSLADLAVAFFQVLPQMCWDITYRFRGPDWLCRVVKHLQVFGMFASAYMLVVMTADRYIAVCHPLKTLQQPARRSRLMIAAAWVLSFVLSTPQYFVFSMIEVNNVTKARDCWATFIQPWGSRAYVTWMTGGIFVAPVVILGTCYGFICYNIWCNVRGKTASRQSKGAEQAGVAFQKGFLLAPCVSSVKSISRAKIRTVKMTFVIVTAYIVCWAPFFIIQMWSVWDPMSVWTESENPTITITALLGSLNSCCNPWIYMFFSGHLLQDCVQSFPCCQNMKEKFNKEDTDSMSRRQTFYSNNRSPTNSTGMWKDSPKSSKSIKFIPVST
T13 sequence (Q9HBX9 whole entry): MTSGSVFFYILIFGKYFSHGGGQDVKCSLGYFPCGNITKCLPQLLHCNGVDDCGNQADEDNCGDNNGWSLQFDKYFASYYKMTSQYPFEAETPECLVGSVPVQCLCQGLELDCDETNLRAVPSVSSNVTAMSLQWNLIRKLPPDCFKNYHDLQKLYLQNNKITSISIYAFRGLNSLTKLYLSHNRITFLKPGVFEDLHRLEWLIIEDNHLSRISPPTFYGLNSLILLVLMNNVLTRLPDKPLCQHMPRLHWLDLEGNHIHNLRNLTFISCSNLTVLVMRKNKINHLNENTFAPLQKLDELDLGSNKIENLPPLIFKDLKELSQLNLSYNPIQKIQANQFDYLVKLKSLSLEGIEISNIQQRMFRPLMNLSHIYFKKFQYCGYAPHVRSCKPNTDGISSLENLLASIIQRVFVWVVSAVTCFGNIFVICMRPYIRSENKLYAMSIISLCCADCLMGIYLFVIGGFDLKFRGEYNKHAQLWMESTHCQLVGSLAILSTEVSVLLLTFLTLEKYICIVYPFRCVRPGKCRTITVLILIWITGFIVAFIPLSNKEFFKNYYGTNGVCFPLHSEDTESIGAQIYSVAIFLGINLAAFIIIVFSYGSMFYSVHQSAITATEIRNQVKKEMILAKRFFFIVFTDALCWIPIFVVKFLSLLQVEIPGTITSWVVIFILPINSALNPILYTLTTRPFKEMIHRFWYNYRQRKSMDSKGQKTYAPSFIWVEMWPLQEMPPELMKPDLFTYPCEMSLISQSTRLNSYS
T20 sequence (P25089 whole entry): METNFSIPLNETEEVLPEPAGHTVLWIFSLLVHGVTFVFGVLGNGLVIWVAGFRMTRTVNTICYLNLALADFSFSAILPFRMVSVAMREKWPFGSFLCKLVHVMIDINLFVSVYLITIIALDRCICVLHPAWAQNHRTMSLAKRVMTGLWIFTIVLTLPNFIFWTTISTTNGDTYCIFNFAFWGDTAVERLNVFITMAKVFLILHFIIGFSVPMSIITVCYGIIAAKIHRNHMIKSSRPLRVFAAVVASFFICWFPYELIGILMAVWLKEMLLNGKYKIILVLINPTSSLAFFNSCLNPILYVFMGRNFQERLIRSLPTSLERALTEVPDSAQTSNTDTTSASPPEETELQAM
T6 sequence (P35408 whole entry): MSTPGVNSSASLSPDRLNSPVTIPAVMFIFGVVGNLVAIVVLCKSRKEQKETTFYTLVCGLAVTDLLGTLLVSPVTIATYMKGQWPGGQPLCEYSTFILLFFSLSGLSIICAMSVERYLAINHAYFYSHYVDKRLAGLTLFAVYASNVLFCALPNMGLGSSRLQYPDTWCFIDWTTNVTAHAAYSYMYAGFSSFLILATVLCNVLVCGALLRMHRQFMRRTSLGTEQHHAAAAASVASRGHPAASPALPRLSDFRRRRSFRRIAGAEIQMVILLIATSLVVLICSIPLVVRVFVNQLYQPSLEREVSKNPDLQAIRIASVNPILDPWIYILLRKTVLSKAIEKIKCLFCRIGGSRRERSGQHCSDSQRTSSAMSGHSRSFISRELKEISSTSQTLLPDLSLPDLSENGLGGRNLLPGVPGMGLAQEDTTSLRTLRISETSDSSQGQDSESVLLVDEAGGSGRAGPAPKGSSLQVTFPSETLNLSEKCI

- HRH3 dose-response raw reporter signal (Fig. 5b source data) (HRH3; Log(10)Conc (M) -12): 112 and 153 and 198
- HRH3 dose-response raw reporter signal (Fig. 5b source data) (HRH3; Log(10)Conc (M) -13): 130 and 206 and 248
- HRH3 dose-response raw reporter signal (Fig. 5b source data) (HRH3; Log(10)Conc (M) -14): 97 and 162 and 233
- HRH3 dose-response raw reporter signal (Fig. 5b source data) (HRH3; Log(10)Conc (M) -15): 150 and 124 (2×)
- GPCR activation (heatmap value) ([1]; HRH4, 100 µM): 2.481
- HRH4 dose-response raw reporter signal (Fig. 5b source data) ([1]; Log(10)Conc (M) -5): 18151 and 17815
- HRH4 dose-response raw reporter signal (Fig. 5b source data) ([1]; Log(10)Conc (M) -6): 6385 and 6598
- HRH4 dose-response raw reporter signal (Fig. 5b source data) ([1]; Log(10)Conc (M) -7): 1365 and 1430
- HRH4 dose-response raw reporter signal (Fig. 5b source data) ([1]; Log(10)Conc (M) -8): 793 and 758
- HRH4 dose-response raw reporter signal (Fig. 5b source data) ([1]; Log(10)Conc (M) -9): 522 and 575
- HRH4 dose-response raw reporter signal (Fig. 5b source data) ([1]; Log(10)Conc (M) -10): 463 and 475
- HRH4 dose-response raw reporter signal (Fig. 5b source data) ([1]; Log(10)Conc (M) -11): 357 and 469
- HRH4 dose-response raw reporter signal (Fig. 5b source data) ([1]; Log(10)Conc (M) -12): 542 and 504
- HRH4 dose-response raw reporter signal (Fig. 5b source data) ([1]; Log(10)Conc (M) -13): 404 and 363
- HRH4 dose-response raw reporter signal (Fig. 5b source data) ([1]; Log(10)Conc (M) -14): 351 and 360
- HRH4 dose-response raw reporter signal (Fig. 5b source data) ([1]; Log(10)Conc (M) -15): 333 and 448
- pEC50 ([1]; PRESTO-Tango dose-response, n = 3, read-out: EC50 (HRH4 activation)): 5.57
- GPCR activation (heatmap value) (CCKAR): 0.3945
- GPCR activation (heatmap value) (HTR1B): -0.02426
- GPCR activation (heatmap value) (MAS1): 0.05755
- GPCR activation (heatmap value) (PTGER4): 0.407
- GPCR activation (heatmap value) (GPR116): -0.4317
- GPCR activation (heatmap value) (SCTR): -0.8565
- GPCR activation (heatmap value) (ADORA2B): -1.632
- GPCR activation (heatmap value) (GPR68): -0.3643
- GPCR activation (heatmap value) (APJ): 0.4932
- GPCR activation (heatmap value) (CRHR1): 0.4025
- GPCR activation (heatmap value) (RXFP1): -0.5413
- GPCR activation (heatmap value) (S1PR3): -0.09323
- GPCR activation (heatmap value) (AVPR1A): 0.8531
- GPCR activation (heatmap value) (P2RY2): -0.0487
- GPCR activation (heatmap value) (NPY4R): 1.0914
- GPCR activation (heatmap value) (GPR133): -0.3215
- GPCR activation (heatmap value) (TAAR8): -0.2862
- GPCR activation (heatmap value) (FPR3): 0.135
- GPCR activation (heatmap value) (MRGPRF): 0.9987
SMILES: CC(C)Cc1ncc(CCCCNC(=N)N)[nH]c1=O [3-Homo]

— article PMC11480411, “Mucosal sugars delineate pyrazine vs pyrazinone autoinducer signaling in Klebsiella oxytoca” (Nature Communications, 2024)
